The values that follow come from patent US20250122191A1, “COMPOUNDS AS BCL-2 INHIBITORS” (Fochon Biosciences, Ltd, priority 2021, published 2025).

For orientation: IC50 means the point on the concentration scale where inhibition reaches its midpoint. By AUC(0-t) is commonly meant exposure summed from dosing to a finite time, without extrapolation to infinity. Higher therefore signals more exposure. As usually defined, the half-life is how long it takes for the measured level to halve. Higher therefore signals slow loss.

In one data set the test system is Toledo cells. Briefly: Cell proliferation assay (MTS), Toledo cells. To be noted: Homo sapiens, 72 h. It counts as cell-based. The procedure, abridged: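 Toledo cells (RPMI-1640, 10% FBS) seeded at 30000 cells/well, rested 4 h, then exposed 72 h at 37 °C, 5% CO2 to compound at nine final concentrations, 1.5–10000 nM. Viability by MTS (2 h), absorbance at 490 nm. IC50 from the concentration-response.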

A further data set has as its system RS4;11-BCL-2 F104L cells. The data set can be described thus: Cell proliferation assay (MTS), RS4;11-BCL-2 F104L engineered cells. It counts as cell-based. As to conditions: Homo sapiens, 120 h, read-out: RS4, 11 BCL2-F104L IC50. The essentials: (§1)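 RS4;11 cells stably overexpressing mutant BCL-2 were seeded and pre-incubated 4 h (G101V, F104L) or 24 h (D103E, D103Y), then exposed to compound at 1.5–10000 nM for 120 h (G101V, F104L) or 72 h (D103E, D103Y) at 37 °C. Viability was read by MTS absorbance at 490 nm after 2 h; IC50 fitted.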

A further data set has as its system RS4;11-BCL-2 D103E cells. The data set can be described thus: Cell proliferation assay (MTS), RS4;11-BCL-2 D103E engineered cells. It counts as cell-based. As to conditions: Homo sapiens, 72 h, read-out: RS4, 11 BCL2-D103E IC50. The procedure, abridged: as §1
Data set [1] can be described thus: Pharmacokinetics assay in rats. It counts as in vivo. To be noted: male Sprague-Dawley rats, po, 5 mg/kg, plasma; for AUC(0-t) / half-life / Cmax: rat; for Cmax: read-out: Cmax/C0. As for the experimental part:
The purpose of this study was to determine the pharmacokinetics of Examples in male Sprague-Dawley rats (Supplied by Beijing Vital River Laboratory Animal Technology Co., Ltd.) following a single intravenous bolus injection at 1 mg/kg and oral gavage (PO) administration at 5 mg/kg.
Animals in Group 1 were administered with Examples by single intravenous bolus injection at 1 mg/kg, which was formulated in 10% DMSO (Sigma, Batch #LPCOS181): 60% PEG400 (Sigma, Batch #MKCH6281): 30% water, pH 5-6 at 1 mg/mL as a solution. Animals in Group 2 were administered with Examples by single oral gavage (PO) administration at 5 mg/kg, which was formulated in 10% DMSO (Sigma, Batch #BCCD6641): 60% PEG400 (Sigma, Batch #MKCL4921): 30% water at 1 mg/mL as a solution. Blood samples were collected at 0.083, 0.25, 0.5, 1, 2, 4, 8, 12 and 24 hours post-dose. Concentrations of Examples in plasma were determined by LC/MS/MS (LC: Waters UPLC; MS: Triple Quad 6500 plus).

For a further data set, the system named is RS4;11-BCL-2 G101V cells. The data set can be described thus: Cell proliferation assay (MTS), RS4;11-BCL-2 G101V engineered cells. To be noted: Homo sapiens, 120 h, read-out: RS4, 11 BCL2-G101V IC50. It counts as cell-based. The procedure, abridged:
as §1

`COc1ccc(CN2CCN(C3CC4(CCN(c5ccc(C(=O)NS(=O)(=O)c6cnc(NC[C@H]7CC[C@](C)(O)CC7)c([N+](=O)[O-])c6)c(Oc6cc7c(F)c[nH]c7nc6OC)c5)CC4)C3)[C@H](c3ccccc3C(C)C)C2)cc1` [Example 1, 2-((3 fluoro-6-methoxy-1H pyrrolo[2,3-b]pyridin-5 yl)oxy)-N-((6-((((1r, 4r)-4-hydroxy-4-methylcyclohexyl)methyl)amino)-5-nitropyridin-3-yl)sulfonyl)-4-(2-((R)-2-(2-isopropylphenyl)-4-(4-methoxybenzyl)piperazin-1-yl)-7-azaspiro[3.5]nonan-7-yl)benzamide]: the IC50 with Toledo cells came to 1 nM; in the data set with RS4;11-BCL-2 F104L cells it was 1 nM; with RS4;11-BCL-2 D103E cells it was 2 nM; with RS4;11-BCL-2 G101V cells, 1 nM. The AUC(0-t) in data set [1] came to 3030 ng·h/mL. Also, the half-life in data set [1] was 9.02 h. In addition, the Cmax in data set [1] came out at 227 ng/mL.

On to `CCOc1nc2[nH]cc(F)c2cc1Oc1cc(N2CCC3(CC2)CC(N2CCN(Cc4ccc(OC)cc4)C[C@H]2c2ccccc2C(C)C)C3)ccc1C(=O)NS(=O)(=O)c1cnc(NC[C@H]2CC[C@](C)(O)CC2)c([N+](=O)[O-])c1` [Example 2, 2-((6-ethoxy-3-fluoro-1H-pyrrolo[2,3-b]pyridin-5-yl)oxy)-N-((6-((((1r,4r)-4-hydroxy-4-methylcyclohexyl)methyl)amino)-5-nitropyridin-3-yl)sulfonyl)-4-(2-((R)-2-(2-isopropylphenyl)-4-(4-methoxybenzyl)piperazin-1-yl)-7-azaspiro[3.5]nonan-7-yl)benzamide], for which the IC50 in the data set with Toledo cells was 1 nM; in the data set with RS4;11-BCL-2 D103E cells, 3 nM; in the data set on RS4;11-BCL-2 G101V cells, 1 nM. In data set [1], this compound came in with an AUC(0-t) of 1920 ng·h/mL. This compound also gave a half-life in data set [1] of 7.62 h. In addition, the Cmax in data set [1] is 166 ng/mL.

In turn, `COc1nc2[nH]cc(F)c2cc1Oc1cc(N2CCC3(CC2)CC(N2CCN(Cc4ccc(F)c(F)c4)C[C@H]2c2ccccc2C(C)C)C3)ccc1C(=O)NS(=O)(=O)c1cnc(NC[C@H]2CC[C@](C)(O)CC2)c([N+](=O)[O-])c1` [Example 3, 4-(2-((R)-4-(3,4-difluorobenzyl)-2-(2-isopropylphenyl)piperazin-1-yl)-7-azaspiro[3.5]nonan-7-yl)-2-((3-fluoro-6-methoxy-1H-pyrrolo[2,3-b]pyridin-5-yl)oxy)-N-((6-((((1r,4r)-4-hydroxy-4-methylcyclohexyl)methyl)amino)-5-nitropyridin-3-yl)sulfonyl)benzamide] displayed an IC50 in the data set with Toledo cells of 1 nM. Moreover, the IC50 in the data set on RS4;11-BCL-2 F104L cells is 1 nM. Moreover, in data set [1], the AUC(0-t) was 4650 ng·h/mL, the half-life is 9.21 h and the Cmax was found to be 382 ng/mL. The IC50 in the data set with RS4;11-BCL-2 G101V cells was determined as 1 nM.

For `CCOc1nc2[nH]cc(F)c2cc1Oc1cc(N2CCC3(CC2)CC(N2CCN(Cc4ccc(F)c(F)c4)C[C@H]2c2ccccc2C(C)C)C3)ccc1C(=O)NS(=O)(=O)c1cnc(NC[C@H]2CC[C@](C)(O)CC2)c([N+](=O)[O-])c1` [Example 4, 4-(2-((R)-4-(3,4-difluorobenzyl)-2-(2-isopropylphenyl)piperazin-1-yl)-7-azaspiro[3.5]nonan-7-yl)-2-((6-ethoxy-3-fluoro-1H-pyrrolo[2,3-b]pyridin-5-yl)oxy)-N-((6-((((1r,4r)-4-hydroxy-4-methylcyclohexyl)methyl)amino)-5-nitropyridin-3-yl)sulfonyl)benzamide], the IC50 with Toledo cells, in the data set with RS4;11-BCL-2 F104L cells and in the data set with RS4;11-BCL-2 G101V cells was 1 nM in each case. Further, the AUC(0-t) in data set [1] is 1740 ng·h/mL. The same compound showed a half-life in data set [1] of 9.57 h. For the same compound, the Cmax in data set [1] was 176 ng/mL.

In the data set with Toledo cells, `COc1cc(CN2CCN(C3CC4(CCN(c5ccc(C(=O)NS(=O)(=O)c6cnc(NC[C@H]7CC[C@](C)(O)CC7)c([N+](=O)[O-])c6)c(Oc6cc7c(F)c[nH]c7nc6OC)c5)CC4)C3)[C@H](c3ccccc3C(C)C)C2)ccc1C1CC1` [Example 5, 4-(2-((R)-4-(4-cyclopropyl-3-methoxybenzyl)-2-(2-isopropylphenyl)piperazin-1-yl)-7-azaspiro[3.5]nonan-7-yl)-2-((3-fluoro-6-methoxy-1H-pyrrolo[2,3-b]pyridin-5-yl)oxy)-N-((6-((((1r,4r)-4-hydroxy-4-methylcyclohexyl)methyl)amino)-5-nitropyridin-3-yl)sulfonyl)benzamide] registered an IC50 of 1 nM. In the data set on RS4;11-BCL-2 F104L cells, the IC50 stood at 1 nM. For the same compound, in data set [1], the AUC(0-t) is 2260 ng·h/mL, the half-life was 24.4 h and the Cmax turned out to be 37.1 ng/mL. The IC50 in the data set on RS4;11-BCL-2 G101V cells came to 1 nM.

For the compound `COc1nc2[nH]cc(F)c2cc1Oc1cc(N2CCC3(CC2)CC(N2CCN(Cc4ccc(OC)c5oc(C)cc45)C[C@H]2c2ccccc2C(C)C)C3)ccc1C(=O)NS(=O)(=O)c1cnc(NC[C@H]2CC[C@](C)(O)CC2)c([N+](=O)[O-])c1` [Example 13, 2-((3-fluoro-6-methoxy-1H-pyrrolo[2,3-b]pyridin-5-yl)oxy)-N-((6-((((1r,4r)-4-hydroxy-4-methylcyclohexyl)methyl)amino)-5-nitropyridin-3-yl)sulfonyl)-4-(2-((R)-2-(2-isopropylphenyl)-4-((7-methoxy-2-methylbenzofuran-4-yl)methyl)piperazin-1-yl)-7-azaspiro[3.5]nonan-7-yl)benzamide], the IC50 in the data set on Toledo cells, with RS4;11-BCL-2 F104L cells, with RS4;11-BCL-2 D103E cells and in the data set with RS4;11-BCL-2 G101V cells was 1 nM each time. Besides, the AUC(0-t) in data set [1] is 1890 ng·h/mL. This compound had a half-life in data set [1] of 11.3 h. Moreover, the Cmax in data set [1] was determined as 198 ng/mL.

With `COc1nc2[nH]cc(F)c2cc1Oc1cc(N2CCC3(CC2)CC(N2CCN(Cc4ccc(Cl)cc4)C[C@H]2c2ccccc2C(C)C)C3)ccc1C(=O)NS(=O)(=O)c1cnc(NC[C@H]2CC[C@](C)(O)CC2)c([N+](=O)[O-])c1` [Example 230, 4-(2-((R)-4-(4-chlorobenzyl)-2-(2-isopropylphenyl)piperazin-1-yl)-7-azaspiro[3.5]nonan-7-yl)-2-((3-fluoro-6-methoxy-1H-pyrrolo[2,3-b]pyridin-5-yl)oxy)-N-((6-((((1r,4r)-4-hydroxy-4-methylcyclohexyl)methyl)amino)-5-nitropyridin-3-yl)sulfonyl)benzamide], the concentration for half-maximal inhibition (IC50) in the data set with Toledo cells, with RS4;11-BCL-2 F104L cells and in the data set on RS4;11-BCL-2 G101V cells was 1 nM throughout. Moreover, in data set [1], the AUC(0-t) amounted to 3750 ng·h/mL. In addition, the half-life in data set [1] was 10.2 h. Also, the Cmax in data set [1] was determined as 329 ng/mL.

`COc1nc2[nH]cc(F)c2cc1Oc1cc(N2CCC3(CC2)CC(N2CCN(Cc4ccc(F)cc4)C[C@H]2c2ccccc2C(C)C)C3)ccc1C(=O)NS(=O)(=O)c1cnc(NC[C@H]2CC[C@](C)(O)CC2)c([N+](=O)[O-])c1` [Example 233, 2-((3-fluoro-6-methoxy-1H-pyrrolo[2,3-b]pyridin-5-yl)oxy)-4-(2-((R)-4-(4-fluorobenzyl)-2-(2-isopropylphenyl)piperazin-1-yl)-7-azaspiro[3.5]nonan-7-yl)-N-((6-((((1r,4r)-4-hydroxy-4-methylcyclohexyl)methyl)amino)-5-nitropyridin-3-yl)sulfonyl)benzamide] had an IC50 in the data set with Toledo cells of 1 nM. For the same compound, in the data set on RS4;11-BCL-2 F104L cells, the half-inhibitory concentration (IC50) came out at 1 nM. Moreover, in data set [1], the exposure AUC(0-t) amounted to 3920 ng·h/mL, the half-life is 7.36 h and the Cmax was found to be 439 ng/mL. Besides, the IC50 in the data set on RS4;11-BCL-2 G101V cells worked out at 1 nM.

In data set [1], `CC(C)c1ccccc1[C@@H]1CN(C)CCN1C1CC2(CCN(c3ccc(C(=O)NS(=O)(=O)c4cnc(NCC5CCC(C)(O)CC5)c([N+](=O)[O-])c4)c(Oc4cnc5[nH]ccc5c4)c3)CC2)C1` (stereo partly drawn) [Reference Compound 1, (R)-2-((1H-pyrrolo[2,3-b]pyridin-5-yl)oxy)-N-((6-(((4-hydroxy-4-methylcyclohexyl)methyl)amino)-S-nitropyridin-3-yl)sulfonyl)-4-(2-(2-(2-isopropylphenyl)-4-methylpiperazin-1-yl)-7-azaspiro[3.5]nonan-7-yl)benzamide, reference compound] had an AUClast of 128 ng·h/mL, a Cmax/C0 of 49.9 ng/mL and a T1/2 of 1.16 h.
